Source: US9029369B2, “Aprepitant L-proline composition and cocrystal” (Nuformix Limited, priority 2010, dated 2015)
Like-named read-outs stand apart in the source and are kept apart here.

Key:
[1] = Stability study under accelerated conditions, 40° C./75% RH, examined by XRPD
[2] = Dissolution study, USP Apparatus 2 (paddle), distilled water containing 2.2% SDS; format: physicochemical; conditions: 2.2% SDS in purified water
Method: Material providing 125 mg of aprepitant was used in each dissolution experiment and in each experiment the test sample was added directly to the dissolution media as a loose powder.
Analysis was carried out by HPLC/UV using an Agilent 1100/1200 series HPLC system with UV variable wavelength detection. Standards were prepared in acetonitrile at 0.14 mg/ml. All standard and sample solutions were filtered through 0.45 μm filters.

[3] = cited from earlier work
[4] = nanoparticulate formulation (marketed capsules, oral); cited from earlier work
[5] = low solubility and low permeability API; cited from earlier work
[6] = 0 mins, 900 ml, 37.0° C., 100 rpm, material providing 125 mg aprepitant, triplicate
[7] = 180 mins (infinity time point), 37.0° C., 100 rpm

mean dissolution value [2, 6] [%]	mean dissolution value ([2]; 1 min, 37.0° C., 100 rpm)	mean dissolution value ([2]; 2 mins, 37.0° C., 100 rpm) [%]	mean dissolution value ([2]; 3 mins, 37.0° C., 100 rpm) [%]	mean dissolution value ([2]; 4 mins, 37.0° C., 100 rpm) [%]	mean dissolution value ([2]; 5 mins, 37.0° C., 100 rpm) [%]	mean dissolution value ([2]; 10 mins, 37.0° C., 100 rpm) [%]	mean dissolution value ([2]; 15 mins, 37.0° C., 100 rpm) [%]	mean dissolution value ([2]; 20 mins, 37.0° C., 100 rpm) [%]	mean dissolution value ([2]; 30 mins, 37.0° C., 100 rpm) [%]	mean dissolution value ([2]; 45 mins, 37.0° C., 100 rpm) [%]	mean dissolution value ([2]; 60 mins, 37.0° C., 100 rpm) [%]	mean dissolution value [2, 7] [%]	SMILES	also measured
0.0	more than 93%	95.7	95.6	95.8	95.1	95.5	95.9	96.0	96.2	96.8	97.0	99.2	C[C@@H](O[C@H]1OCCN(Cc2n[nH]c(=O)[nH]2)[C@H]1c1ccc(F)cc1)c1cc(C(F)(F)F)cc(C(F)(F)F)c1.O.O=C(O)[C@@H]1CCCN1	XRPD Characterization ([1]; 1 month): cocrystal; XRPD Characterization ([1]; 1 week): cocrystal; XRPD Characterization ([1]; 2 months): cocrystal; XRPD Characterization ([1]; 2 week): cocrystal; XRPD Characterization ([1]; 3 months): cocrystal; XRPD Characterization ([1]; 3 week): cocrystal; XRPD Characterization ([1]; 6 months): cocrystal; physical stability with respect to dissociation into starting components ([1]; six month period): stable; XRPD Characterization ([1]; time point 0): cocrystal; behaviour once dissolved (re-precipitation of the API) ([2]; up to 180 minutes): remained in solution with no re-precipitation of the API; mean dissolution value ([2]; 1 min, 37.0° C., 100 rpm, listed as 1:1:1 Aprepitant L-proline cocrystal): 93.4%
0.0	18.5%	34.4	44.2	52.2	57.6	70.1	77.2	80.4	85.4	87.3	89.3	94.6	C[C@@H](O[C@H]1OCCN(Cc2nc(=O)[nH][nH]2)[C@H]1c1ccc(F)cc1)c1cc(C(F)(F)F)cc(C(F)(F)F)c1 [Crystalline Aprepitant, reference compound]	solubility ([3]; in acetonitrile): slightly soluble; solubility ([3]; in ethanol): sparingly soluble; solubility ([3]; in isopropyl acetate): sparingly soluble; solubility ([3]; in water): practically insoluble; time to achieve the same level of dissolution that the cocrystal achieved within the first minute ([2]; 37.0° C., 100 rpm): ~180 min; mean absolute bioavailability [4]: 60-65%; BCS class [5]: Class IV
